For one assay, the system named is writhing behavior. Description: Analgesic action by a writhing method using acetic acid. Particulars: sc; statistically minimum effective dose; 0.6% acetic acid ip 15 minutes after the drug, writhing counted for ten minutes; mice. The assay is classed as in vivo, Male mice of a ddY strain.
Another assay has as its target 5HT2 (Homo sapiens, UniProt P28223). Description: Serotonin (5HT) receptor binding action (RBA; in vitro), 5HT2. Particulars: method of JP98/01481 or JP-A 10-281752.
A further assay deals with T1, 5HT1A (Homo sapiens, UniProt P08908).
T1 sequence (P08908 1-422): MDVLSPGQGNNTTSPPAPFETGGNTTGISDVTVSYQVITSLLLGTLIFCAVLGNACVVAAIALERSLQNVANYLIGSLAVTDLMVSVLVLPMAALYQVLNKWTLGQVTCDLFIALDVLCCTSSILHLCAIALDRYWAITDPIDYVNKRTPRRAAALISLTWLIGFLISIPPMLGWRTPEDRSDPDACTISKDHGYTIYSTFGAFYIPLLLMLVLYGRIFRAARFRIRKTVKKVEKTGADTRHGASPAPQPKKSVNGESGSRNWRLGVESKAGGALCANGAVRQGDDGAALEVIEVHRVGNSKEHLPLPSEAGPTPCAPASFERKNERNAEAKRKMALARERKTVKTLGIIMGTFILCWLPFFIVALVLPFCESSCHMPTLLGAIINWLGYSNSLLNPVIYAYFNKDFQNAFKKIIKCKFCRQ
As to the kind of experiment: Serotonin (5HT) receptor binding action (RBA; in vitro), 5HT1A. Particulars: method of JP98/01481 or JP-A 10-281752.

Assay [1] is described as follows: Muscle relaxing action (in vivo). Conditions: method of JP98/01481 or JP-A 10-281752. The text has this:
There are also shown a serotonin (5HT) receptor binding action (RBA; in vitro) and a muscle relaxing action (in vivo) measured according to a method described in JP98/01481 or JP-A 10-281752. (In the table, "n.t." means "not tested").

SMILES strings stand for the structures. Counter-ions that a name gives are not always drawn. Some results are limits rather than exact numbers.

5HT2, sequence (P28223 whole entry, species assumed): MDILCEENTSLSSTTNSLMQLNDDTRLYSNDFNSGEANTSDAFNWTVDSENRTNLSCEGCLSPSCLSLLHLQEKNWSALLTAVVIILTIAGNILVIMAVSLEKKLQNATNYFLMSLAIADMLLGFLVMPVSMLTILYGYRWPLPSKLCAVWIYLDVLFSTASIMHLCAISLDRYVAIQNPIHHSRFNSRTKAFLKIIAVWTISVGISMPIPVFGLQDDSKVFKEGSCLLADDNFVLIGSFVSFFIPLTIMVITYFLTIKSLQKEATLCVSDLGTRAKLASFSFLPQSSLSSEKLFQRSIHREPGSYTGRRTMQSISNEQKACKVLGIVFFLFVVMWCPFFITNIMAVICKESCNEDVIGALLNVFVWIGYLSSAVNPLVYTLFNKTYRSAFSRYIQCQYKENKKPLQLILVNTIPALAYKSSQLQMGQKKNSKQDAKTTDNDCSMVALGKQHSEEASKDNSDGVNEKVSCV

Consider `COc1ccc(CCN2CCC(n3ccc4ccc(CNC(C)=O)cc43)CC2)cc1` [(3), 1-[1-(4-methoxyphenethyl)piperidin-4-yl]-6-(N-acetylaminomethyl)indole], for which the “Analgesic Action (minimum effective dose)” value (“Analgesic Action” below) with writhing behavior was found to be 10 mg/kg. Also, the figures for the Ki at 5HT2 and at 5HT1A were > 20 nM and 0.27 nM, respectively.
As for `O=C(Cc1ccc2ccn(C3CCN(CCc4ccc(F)cc4)CC3)c2c1)NCCO` [(6), 1-[1-(4-fluorophenethyl)piperidin-4-yl]-6-(N-hydroxyethylamidemethyl)indole], in assay [1], the “Muscle-Relaxing Action (po)” value is 10 mg/kg. The “Analgesic Action” value in the assay on writhing behavior is on record as > 10 mg/kg.
As to `CN(C)C(=O)Cc1ccc2ccn(C3CCN(CCc4ccc(F)cc4)CC3)c2c1` [(7), 1-[1-(4-fluorophenethyl)piperidin-4-yl]-6-(N,N-dimethylamidemethyl)indole oxalate], the “Analgesic Action” value in the assay with writhing behavior is on record as > 10 mg/kg.
Turning to `NC(=O)Cc1ccc2ccn(C3CCN(CCc4ccc(F)cc4)CC3)c2c1` [(8), 1-[1-(4-fluorophenethyl)piperidin-4-yl]-6-amidemethylindole], the “Muscle-Relaxing Action (po)” value in assay [1] was 3 mg/kg. Further, in the assay on writhing behavior, the “Analgesic Action” value is > 3 mg/kg.
Take `CNC(=O)Cc1ccc2ccn(C3CCN(CCc4ccc(F)cc4)CC3)c2c1` [(9), 1-[1-(4-fluorophenethyl)piperidin-4-yl]-6-(N-methylamidemethyl)indole]: in assay [1], the “Muscle-Relaxing Action (ip)” value is 0.3 mg/kg and the “Muscle-Relaxing Action (po)” value is reported as 3 mg/kg. Moreover, the “Analgesic Action” value in the assay with writhing behavior is on record as 1 mg/kg.
Consider `CCNC(=O)Cc1ccc2ccn(C3CCN(CCc4ccccc4F)CC3)c2c1` [(11), 1-[1-(2-fluorophenethyl)piperidin-4-yl]-6-(N-ethylamidemethyl)indole], for which, in assay [1], the “Muscle-Relaxing Action (po)” value amounted to 10 mg/kg. Moreover, the “Analgesic Action” value in the assay on writhing behavior was 3 mg/kg.
For `O=C(Cc1ccc2ccn(C3CCN(CCc4ccccc4F)CC3)c2c1)NCCO` [(12), 1-[1-(2-fluorophenethyl)piperidin-4-yl]-6-(N-hydroxyethylamidemethyl)indole] the same measures were > 10 mg/kg and 10 mg/kg.
As for `CCN1CCN(c2nc(-c3ccc(OC)cc3)cc3ccccc23)CC1` [(15), 1-(4-ethylpiperazin-1-yl)-3-(4-methoxyphenyl)isoquinoline], the “Analgesic Action” value with writhing behavior was 3 mg/kg. Moreover, the Ki at 5HT2 turned out to be 11.1 nM; at 5HT1A, 59.9 nM.
With `CCN1CCN(c2nc(-c3cccc(CCCO)c3)cc3ccccc23)CC1` [(22), 1-(4-ethylpiperazin-1-yl)-3-(3-hydroxypropylphenyl)isoquinoline hydrochloride], in the assay on writhing behavior, the “Analgesic Action” value was found to be 3 mg/kg. The Ki stood at 17.4 nM on 5HT2 and 54.5 nM at 5HT1A.
The corresponding values for `CC(C)(O)COc1ccc(-c2cc3sccc3c(N3CCN(CCO)CC3)n2)cc1.Cl` [(27), 4-(4-hydroxyethylpiperazin-1-yl)-6-[4-(2-hydroxy-2-methylpropoxy)phenyl]thieno[3,2-c]pyridine hydrochloride] are 1 mg/kg, 0.35 nM and 1530 nM.
With `COc1cccc(C(O)C2CCN(CCc3ccc(F)cc3)CC2)c1OC` (stereo not drawn) [MDL-100,907, reference compound], in assay [1], the “Muscle-Relaxing Action (ip)” value is reported as 0.3 mg/kg and the “Muscle-Relaxing Action (po)” value is on record as 1 mg/kg. Moreover, in the assay with writhing behavior, the “Analgesic Action” value is 3 mg/kg.
Turning to `CN1CC[C@]23c4c5ccc(O)c4O[C@H]2[C@@H](O)C=C[C@H]3[C@H]1C5.Cl` [Morphine Hydrochloride, morphine hydrochloride, reference compound], in assay [1], the “Muscle-Relaxing Action (ip)” value is recorded as “Ineffective (Strain Induced)” and the “Muscle-Relaxing Action (po)” value was “Ineffective (Strain Induced)”. In the assay on writhing behavior, the “Analgesic Action” value was found to be 1 mg/kg.
Regarding `COc1ccccc1N1CCN(CCN(C(=O)C2CCCCC2)c2ccccn2)CC1` [WAY-100,635, reference compound], the “Muscle-Relaxing Action (ip)” value in assay [1] is on record as > 10 mg/kg. Besides, in the assay with writhing behavior, the “Analgesic Action” value was 3 mg/kg. For the same compound, the Ki at 5HT2 was > 200 nM.
